Assay results: patent publication US9937204B2 (priority 2008, dated 2018)

Tests used:
non-albicans isolates = conditions: out of 100 non-albicans isolates from HIV patients with thrush; cited from earlier work
Candida species = assay: Time-kill assay, all species together; type: cell-based; conditions: chlorhexidine gluconate concentrations tested (0.015-0.12%); within one minute of exposure
Procedure: Following exposure, 100 μl aliquots were diluted 50% with 0.85% saline and plated onto potato dextrose agar plates. The aliquots were allowed to dry and then were streaked to remove the yeast from the compound. The plates were incubated at 35° C. for 24 hours. Colony counts were taken and were compared to initial inoculum. The same test was done treating the four Candida species with chlorhexidine gluconate at concentrations ranging from 0.015-0.12%. Chlorhexidine gluconate at concentration 0.12% is commonly prescribed to patients with oral disease.

## OC(Cn1cncn1)(Cn1cncn1)c1ccc(F)cc1F [fluconazole]
non-albicans isolates
  Number of isolates resistant: 88

## N=C(NCCCCCCNC(=N)NC(=N)Nc1ccc(Cl)cc1)NC(=N)Nc1ccc(Cl)cc1.O=C(O)[C@H](O)[C@@H](O)[C@H](O)[C@H](O)CO.O=C(O)[C@H](O)[C@@H](O)[C@H](O)[C@H](O)CO [chlorhexidine gluconate, Chlorhexidine gluconate]
Candida species
  Time-kill result in words (colony count): did not reduce the colony count
